For 51 compounds, IC50 results are on record in the Kinase Knowledgebase extract (Sharma et al. 2016).

A value given as a limit tells only on which side of the number the result lay.

In the experiment the target is PIK3CA (human) (UniProt P42336). Nature of the experiment: Assessment of PIK3CA Kinase Activity.
PIK3CA (human), sequence (P42336 whole entry, looked up): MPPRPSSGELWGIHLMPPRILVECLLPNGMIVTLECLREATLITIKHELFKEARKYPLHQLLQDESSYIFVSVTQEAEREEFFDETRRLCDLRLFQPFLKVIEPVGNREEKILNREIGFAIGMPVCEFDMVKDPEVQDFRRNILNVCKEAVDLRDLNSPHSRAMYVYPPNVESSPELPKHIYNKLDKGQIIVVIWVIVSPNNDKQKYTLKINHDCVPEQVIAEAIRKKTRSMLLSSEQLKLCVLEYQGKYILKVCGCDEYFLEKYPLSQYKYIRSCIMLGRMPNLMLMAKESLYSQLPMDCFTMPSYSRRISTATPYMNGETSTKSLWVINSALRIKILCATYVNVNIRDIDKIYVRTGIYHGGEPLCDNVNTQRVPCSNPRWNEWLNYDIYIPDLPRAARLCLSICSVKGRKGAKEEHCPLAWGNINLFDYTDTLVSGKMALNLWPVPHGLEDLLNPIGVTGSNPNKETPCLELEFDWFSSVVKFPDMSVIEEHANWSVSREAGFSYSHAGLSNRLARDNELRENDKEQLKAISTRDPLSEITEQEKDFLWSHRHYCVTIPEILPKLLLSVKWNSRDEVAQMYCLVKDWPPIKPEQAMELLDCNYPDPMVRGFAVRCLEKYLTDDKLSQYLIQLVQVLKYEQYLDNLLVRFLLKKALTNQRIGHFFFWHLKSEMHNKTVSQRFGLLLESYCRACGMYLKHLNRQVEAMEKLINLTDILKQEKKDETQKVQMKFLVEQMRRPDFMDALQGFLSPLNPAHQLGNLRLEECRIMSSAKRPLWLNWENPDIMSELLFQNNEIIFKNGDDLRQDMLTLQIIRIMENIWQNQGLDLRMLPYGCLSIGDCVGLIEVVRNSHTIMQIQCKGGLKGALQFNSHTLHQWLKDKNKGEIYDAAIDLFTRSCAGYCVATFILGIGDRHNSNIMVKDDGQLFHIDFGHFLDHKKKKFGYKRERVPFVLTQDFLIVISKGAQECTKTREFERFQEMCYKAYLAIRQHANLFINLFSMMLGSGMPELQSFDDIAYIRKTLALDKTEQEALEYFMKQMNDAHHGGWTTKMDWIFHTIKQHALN
The IC50 is the concentration at which inhibition is half-maximal. Read a low IC50 as higher potency. For the compound `Cc1cc(-c2cnc3sc(N)nc3c2)cc2c1OCCN(c1nc(CNC(C)(C)C)nc(C)c1C(C)C)C2`, the IC50 is no more than 100 nM.

`Cc1cc(-c2nnc(N)s2)cc2c1OCCN(c1ncnc(C)c1C(C)C)C2` returned an IC50 of no more than 100 nM.

Compound `Cc1cc(-c2cnc3nc[nH]c3c2)cc2c1OCCN(c1nc(CNCC(F)F)nc(C)c1C(C)C)C2` came in with an IC50 of no more than 100 nM.

Compound `Cc1cc(-c2cnc3sc(N)nc3c2)cc2c1OCCN(c1nc(CN3CCCC3)nc(C)c1C(C)C)C2` registered an IC50 of no more than 100 nM.

As for `COCCc1c(C)ncnc1N1CCOc2c(C)cc(-c3cnc4sc(N)nc4c3)cc2C1`, the IC50 is no more than 100 nM.

Compound `C=C(C)c1c(C)ncnc1N1CCOc2c(C)cc(-c3cnc4sc(N)nc4c3)cc2C1` returned an IC50 of no more than 100 nM.

The compound `Cc1cc(-c2cnc3sc(N)nc3c2)cc2c1OCCN(c1nc(N)c(C#N)c(C)c1C#N)C2` displayed an IC50 of no more than 100 nM.

For the compound `Cc1cc(-c2cnc3sc(N)nc3c2)cc2c1OCCN(c1nc(CO)nc(C)c1C(C)C)C2`, the IC50 is no more than 100 nM.

As to `Cc1cc(-c2ccc3c(c2)OCO3)cc2c1OCCN(c1nc(N)nc(C)c1C(C)C)C2`, the IC50 was no more than 100 nM.

For the compound `Cc1cc(-c2cnc3sc(N)nc3c2)cc2c1OCCN(c1nc(CN(C)C)ncc1CC(F)(F)F)C2`, the IC50 lay within 100 to 500 nM.

As for `CNCc1nc(C)c(C(C)C)c(N2CCOc3c(C)cc(-c4cnc5sc(N)nc5c4)cc3C2)n1`, the IC50 is no more than 100 nM.

`C=Cc1c(CC)nc(N)nc1N1CCOc2c(C)cc(-c3cnc4sc(N)nc4c3)cc2C1` came in with an IC50 of no more than 100 nM.

On to `C=CCc1c(C)nc(N)nc1N1CCOc2c(C)cc(-c3cnc4sc(N)nc4c3)cc2C1`, for which the IC50 is no more than 100 nM.

Compound `Cc1cc(-c2cnc3nc[nH]c3c2)cc2c1OCCN(c1nc(N)nc(C)c1C(C)C)C2` displayed an IC50 of no more than 100 nM.

`Cc1cc(-c2nnc(N)s2)cc2c1OCCN(c1nc(CN(C)CC(F)F)nc(C)c1C(C)C)C2` gave an IC50 of no more than 100 nM.

`Cc1cc(-c2cnc3sc(N)nc3c2)cc2c1OCCN(c1nc(N)nc3c1CC(C)(C)CC3)C2` yielded an IC50 of no more than 100 nM.

On to `Cc1cc(-c2cnc3sc(N)nc3c2)cc2c1OCCN(c1nc(C3CCCN3C)nc(C)c1C(C)C)C2` (stereo unspecified), for which the IC50 was no more than 100 nM.

In turn, `CCNC(=O)c1nc(C)c(C(C)C)c(N2CCOc3c(C)cc(-c4cnc5sc(N)nc5c4)cc3C2)n1` registered an IC50 of no more than 100 nM.

As for `COc1ccc(-c2cc(C)c3c(c2)CN(c2nc(N)nc(C)c2C(C)C)CCO3)cc1OC`, the half-maximal inhibitory concentration (IC50) was no more than 100 nM.

On to `Cc1nc2ccc(-c3cc(C)c4c(c3)CN(c3ncnc5ccc(I)cc35)CCO4)cc2[nH]1`, for which the IC50 is no more than 100 nM.

On to `Cc1cc(-c2cnc3sc(N)nc3c2)cc2c1OCCN(c1ncnc3c1CC(C)(C)C=C3)C2`, for which the IC50 is no more than 100 nM.

Compound `CNc1nc(C)c(C(C)C)c(N2CCOc3c(C)cc(-c4cnc5sc(N)nc5c4)cc3C2)n1` registered an IC50 of no more than 100 nM.

`CC#CCc1c(C)nc(C)nc1N1CCOc2c(C)cc(-c3cnc4sc(N)nc4c3)cc2C1` yielded an IC50 of no more than 100 nM.

With `CCN(Cc1nc(C)c(C(C)C)c(N2CCOc3c(C)cc(-c4nnc(N)s4)cc3C2)n1)CC(F)F`, the IC50 is no more than 100 nM.

`Cc1cc(-c2nnc(N)s2)cc2c1OCCN(c1ncnc(C)c1C)C2` had a half-maximal inhibitory concentration (IC50) of no more than 100 nM.

In turn, `Cc1nc2cc(-c3cc(C)c4c(c3)CN(c3nc(N)nc(C)c3C(C)C)CCO4)cnc2[nH]1` came in with an IC50 of no more than 100 nM.

Take `CCc1c(Cl)nc(CN(C)C)nc1N1CCOc2c(C)cc(-c3cnc4sc(N)nc4c3)cc2C1`: the IC50 is no more than 100 nM.

`Cc1cnc(N2CCOc3c(C)cc(-c4cnc5sc(N)nc5c4)cc3C2)nc1N` had an IC50 of 100 to 500 nM.

In the case of `Cc1ncc(C(C)C)c(N2CCOc3c(C)cc(-c4nnc(N)s4)cc3C2)n1`, the IC50 was no more than 100 nM.

In turn, `CCCc1c(C)nc(N)nc1N1CCOc2c(C)cc(-c3cnc4sc(N)nc4c3)cc2C1` gave an IC50 of no more than 100 nM.

Consider `Cc1cc(-c2cnc3sc(N)nc3c2)cc2c1OCCN(c1nc(CN3CCC(F)(F)C3)nc(C)c1C(C)C)C2`, for which the IC50 was no more than 100 nM.

For `Cc1cc(-c2cnc3sc(N)nc3c2)cc2c1OCCN(c1nc(C(C)N)nc(C)c1C(C)C)C2` (stereo unspecified), the IC50 was no more than 100 nM.

On to `Cc1cc(-c2cncnc2)cc2c1OCCN(c1nc(N)nc(C)c1C(C)C)C2`, for which the half-maximal inhibitory concentration (IC50) fell in the range of 100 to 500 nM.

In the case of `Cc1cc(-c2cnc3sc(N)nc3c2)cc2c1OCCN(c1nc([C@@H]3C[C@@H](F)CN3)nc(C)c1C(C)C)C2`, the concentration for half-maximal inhibition (IC50) was no more than 100 nM.

On to `Cc1cc(-c2ccncc2)cc2c1OCCN(c1nc(N)nc(C)c1C(C)C)C2`, for which the IC50 was no more than 100 nM.

With `Cc1cc(-c2nnc(N)s2)cc2c1OCCN(c1nc(N)nc(C)c1C)C2`, the IC50 was no more than 100 nM.

Compound `Cc1cc(-c2cncc(NS(C)(=O)=O)c2)cc2c1OCCN(c1nc(N)nc(C)c1C(C)C)C2` came in with an IC50 of no more than 100 nM.

With `CCc1c(C)nc(CN(C)C)nc1N1CCOc2c(C)cc(-c3cnc4sc(N)nc4c3)cc2C1`, the IC50 is no more than 100 nM.

Take `CC(=O)NCc1nc(C)c(C(C)C)c(N2CCOc3c(C)cc(-c4cnc5sc(N)nc5c4)cc3C2)n1`: the IC50 was no more than 100 nM.

Turning to `Cc1cc(-c2cnc3sc(N)nc3c2)cc2c1OCCN(c1nc(N)ncc1C(F)(F)F)C2`, the IC50 was no more than 100 nM.

In turn, `Cc1cc(-c2cnc3sc(N)nc3c2)cc2c1OCCN(c1nc([S+](C)[O-])nc(C)c1C(C)C)C2` (stereo unspecified) gave an IC50 of no more than 100 nM.

Regarding `Cc1cc(-c2cnc3sc(N)nc3c2)cc2c1OCCN(c1nc(C3CCCN3)nc(C)c1C(C)C)C2` (stereo unspecified), the IC50 is no more than 100 nM.

In turn, `Cc1cc(-c2cnc3sc(N)nc3c2)cc2c1OCCN(c1nc(N)nc(C)c1C(C)C)C2` yielded an IC50 of no more than 100 nM.

On to `Cc1cc(-c2nnc(N)s2)cc2c1OCCN(c1nc(CNCC(F)F)nc(C)c1C(C)C)C2`, for which the IC50 was no more than 100 nM.

Compound `Cc1ncc(C)c(N2CCOc3c(C)cc(-c4nnc(N)s4)cc3C2)n1` displayed an IC50 of 100 to 500 nM.

In turn, `CCN(CC)Cc1nc(C)c(C(C)C)c(N2CCOc3c(C)cc(-c4cnc5sc(N)nc5c4)cc3C2)n1` returned an IC50 of no more than 100 nM.

`CC(=O)Nc1ncc(-c2cc(C)c3c(c2)CN(c2nc(N)nc(C)c2C(C)C)CCO3)s1`: the IC50 lay within 100 to 500 nM.

`Cc1cc(-c2nnc(N)s2)cc2c1OCCN(c1nc(N)nc(C)c1C(C)C)C2` registered an IC50 of no more than 100 nM.

On to `Cc1cc(-c2nnc(N)s2)cc2c1OCCN(c1nc(N)ncc1C(C)C)C2`, for which the IC50 was no more than 100 nM.

As for `Cc1cc(-c2cnc3sc(N)nc3c2)cc2c1OCCN(c1ncc(F)c(N)n1)C2`, the IC50 is no more than 100 nM.

Compound `CC(=O)c1c(C)ncnc1N1CCOc2c(C)cc(-c3cnc4sc(N)nc4c3)cc2C1` returned an IC50 of no more than 100 nM.
